Source: patent publication US12673945B2, “3-((8-((1H-pyrazol-4-yl)amino)imidazo[1,2-a]pyridin-3-yl)ethinyl)-n-phenylbenzamide derivative, method for preparing same, and pharmaceutical composition containing same as active ingredient for prevention or treatment of cancer” (DAEGU-GYEONGBUK MEDICAL INNOVATION FOUNDATION, priority 2020, dated 2026)

How the values were obtained:
Assay in all cases: scanMAX Kinase panel (DiscoverX)
Format in all cases: binding
LCK = target: T1, LCK (Homo sapiens, UniProt P06239); settings: read-out: % Cont @ 1 uM
T1 construct: purchased DiscoverX scanMAX Kinase panel
In short: (§1)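 The enzyme was exposed to 1 μM drug dissolved in DMSO; the value shown is % control, i.e. (test − positive control) divided by (negative control − positive control), multiplied by 100.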

RET = target: T2, RET (Homo sapiens, UniProt P07949); settings: read-out: % Cont @ 1 uM
T2 construct: purchased DiscoverX scanMAX Kinase panel
In short: as §1

TRKA = target: T3, TRKA (Homo sapiens, UniProt P04629); settings: read-out: % Cont @ 1 uM
T3 construct: purchased DiscoverX scanMAX Kinase panel
In short: as §1

EPHA1 = target: T4, EPHA1 (Homo sapiens, UniProt P21709); settings: read-out: % Cont @ 1 uM
T4 construct: purchased DiscoverX scanMAX Kinase panel
In short: as §1

[1] = target: T5, ABL1(Q252H)-nonphosphorylated (Homo sapiens, UniProt P00519, Q252H); settings: read-out: % Cont @ 1 uM
T5 construct: purchased DiscoverX
In short: as §1

TNIK = target: T6, TNIK (Homo sapiens, UniProt Q9UKE5); settings: read-out: % Cont @ 1 uM
T6 construct: purchased DiscoverX scanMAX Kinase panel
In short: as §1

TAK1 = target: T7, TAK1 (Homo sapiens, UniProt O43318); settings: read-out: % Cont @ 1 uM
T7 construct: purchased DiscoverX scanMAX Kinase panel
In short: as §1

LYN = target: T8, LYN (Homo sapiens, UniProt P07948); settings: read-out: % Cont @ 1 uM
T8 construct: purchased DiscoverX scanMAX Kinase panel
In short: as §1

p38-alpha = target: T9, p38-alpha (Homo sapiens, UniProt Q16539)
T9 construct: purchased DiscoverX scanMAX Kinase panel
In short: as §1

SRC = target: T10, SRC (Homo sapiens, UniProt P12931); settings: read-out: % Cont @ 1 uM
T10 construct: purchased DiscoverX scanMAX Kinase panel
In short: as §1

MUSK = target: T11, MUSK (Homo sapiens, UniProt O15146); settings: read-out: % Cont @ 1 uM
T11 construct: purchased DiscoverX scanMAX Kinase panel
In short: as §1

FLT3(R834Q) = target: T12, FLT3(R834Q) (Homo sapiens, UniProt P36888, R834Q); settings: read-out: % Cont @ 1 uM
T12 construct: purchased DiscoverX scanMAX Kinase panel
In short: as §1

YES = target: T13, YES (Homo sapiens, UniProt P07947); settings: read-out: % Cont @ 1 uM
T13 construct: purchased DiscoverX scanMAX Kinase panel
In short: as §1

FGFR3(G697C) = target: T14, FGFR3(G697C) (Homo sapiens, UniProt P22607, G697C); settings: read-out: % Cont @ 1 uM
T14 construct: purchased DiscoverX scanMAX Kinase panel
In short: as §1

RIOK3 = target: T15, RIOK3 (Homo sapiens, UniProt O14730); settings: read-out: % Cont @ 1 uM
T15 construct: purchased DiscoverX scanMAX Kinase panel
In short: as §1

BRAF = target: T16, BRAF (Homo sapiens, UniProt P15056); settings: read-out: % Cont @ 1 uM
T16 construct: purchased DiscoverX scanMAX Kinase panel
In short: as §1

EPHB6 = target: T17, EPHB6 (Homo sapiens, UniProt O15197); settings: read-out: % Cont @ 1 uM
T17 construct: purchased DiscoverX scanMAX Kinase panel
T17 sequence (O15197 32-1021): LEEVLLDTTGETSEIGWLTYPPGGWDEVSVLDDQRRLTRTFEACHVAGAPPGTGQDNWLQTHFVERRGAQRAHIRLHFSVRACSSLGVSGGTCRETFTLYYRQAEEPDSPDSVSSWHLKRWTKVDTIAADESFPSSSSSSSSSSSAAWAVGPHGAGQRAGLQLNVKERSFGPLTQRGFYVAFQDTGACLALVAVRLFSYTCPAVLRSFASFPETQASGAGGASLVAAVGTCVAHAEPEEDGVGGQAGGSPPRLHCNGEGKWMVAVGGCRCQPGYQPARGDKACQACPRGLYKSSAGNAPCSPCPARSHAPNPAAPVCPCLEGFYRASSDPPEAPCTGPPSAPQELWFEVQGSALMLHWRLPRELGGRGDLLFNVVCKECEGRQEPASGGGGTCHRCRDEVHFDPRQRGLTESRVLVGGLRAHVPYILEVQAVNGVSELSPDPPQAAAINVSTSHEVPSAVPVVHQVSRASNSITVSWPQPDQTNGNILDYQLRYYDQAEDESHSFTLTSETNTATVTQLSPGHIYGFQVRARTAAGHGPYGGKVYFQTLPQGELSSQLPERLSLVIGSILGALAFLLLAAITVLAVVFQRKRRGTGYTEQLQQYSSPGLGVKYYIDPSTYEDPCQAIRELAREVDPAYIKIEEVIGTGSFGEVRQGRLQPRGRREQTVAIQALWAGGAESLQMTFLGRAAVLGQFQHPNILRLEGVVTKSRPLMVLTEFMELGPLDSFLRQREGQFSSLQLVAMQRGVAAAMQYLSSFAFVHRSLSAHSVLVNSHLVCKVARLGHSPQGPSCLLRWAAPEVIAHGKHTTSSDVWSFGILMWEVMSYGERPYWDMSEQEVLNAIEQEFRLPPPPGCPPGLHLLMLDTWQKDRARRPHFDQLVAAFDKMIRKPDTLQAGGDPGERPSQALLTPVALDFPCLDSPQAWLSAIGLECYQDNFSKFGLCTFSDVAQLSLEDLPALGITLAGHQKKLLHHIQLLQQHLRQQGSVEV
In short: as §1

ZAK = target: T18, ZAK (Homo sapiens, UniProt Q9NYL2); settings: read-out: % Cont @ 1 uM
T18 construct: purchased DiscoverX scanMAX Kinase panel
In short: as §1

SRMS = target: T19, SRMS (Homo sapiens, UniProt Q9H3Y6); settings: read-out: % Cont @ 1 uM
T19 construct: purchased DiscoverX scanMAX Kinase panel
In short: as §1

LIMK1 = target: T20, LIMK1 (Homo sapiens, UniProt P53667); settings: read-out: % Cont @ 1 uM
T20 construct: purchased DiscoverX scanMAX Kinase panel
In short: as §1

[2] = target: T21, ABL1(Y253F)-phosphorylated (Homo sapiens, UniProt P00519, Y253F); settings: read-out: % Cont @ 1 uM
T21 construct: purchased DiscoverX scanMAX Kinase panel
In short: as §1

MLK1 = target: T22, MLK1 (Homo sapiens, UniProt P80192); settings: read-out: % Cont @ 1 uM
T22 construct: purchased DiscoverX scanMAX Kinase panel
In short: as §1

LRRK2 = target: T23, LRRK2 (Homo sapiens, UniProt Q5S007); settings: read-out: % Cont @ 1 uM
T23 construct: purchased DiscoverX scanMAX Kinase panel
T23 sequence (Q5S007 whole entry): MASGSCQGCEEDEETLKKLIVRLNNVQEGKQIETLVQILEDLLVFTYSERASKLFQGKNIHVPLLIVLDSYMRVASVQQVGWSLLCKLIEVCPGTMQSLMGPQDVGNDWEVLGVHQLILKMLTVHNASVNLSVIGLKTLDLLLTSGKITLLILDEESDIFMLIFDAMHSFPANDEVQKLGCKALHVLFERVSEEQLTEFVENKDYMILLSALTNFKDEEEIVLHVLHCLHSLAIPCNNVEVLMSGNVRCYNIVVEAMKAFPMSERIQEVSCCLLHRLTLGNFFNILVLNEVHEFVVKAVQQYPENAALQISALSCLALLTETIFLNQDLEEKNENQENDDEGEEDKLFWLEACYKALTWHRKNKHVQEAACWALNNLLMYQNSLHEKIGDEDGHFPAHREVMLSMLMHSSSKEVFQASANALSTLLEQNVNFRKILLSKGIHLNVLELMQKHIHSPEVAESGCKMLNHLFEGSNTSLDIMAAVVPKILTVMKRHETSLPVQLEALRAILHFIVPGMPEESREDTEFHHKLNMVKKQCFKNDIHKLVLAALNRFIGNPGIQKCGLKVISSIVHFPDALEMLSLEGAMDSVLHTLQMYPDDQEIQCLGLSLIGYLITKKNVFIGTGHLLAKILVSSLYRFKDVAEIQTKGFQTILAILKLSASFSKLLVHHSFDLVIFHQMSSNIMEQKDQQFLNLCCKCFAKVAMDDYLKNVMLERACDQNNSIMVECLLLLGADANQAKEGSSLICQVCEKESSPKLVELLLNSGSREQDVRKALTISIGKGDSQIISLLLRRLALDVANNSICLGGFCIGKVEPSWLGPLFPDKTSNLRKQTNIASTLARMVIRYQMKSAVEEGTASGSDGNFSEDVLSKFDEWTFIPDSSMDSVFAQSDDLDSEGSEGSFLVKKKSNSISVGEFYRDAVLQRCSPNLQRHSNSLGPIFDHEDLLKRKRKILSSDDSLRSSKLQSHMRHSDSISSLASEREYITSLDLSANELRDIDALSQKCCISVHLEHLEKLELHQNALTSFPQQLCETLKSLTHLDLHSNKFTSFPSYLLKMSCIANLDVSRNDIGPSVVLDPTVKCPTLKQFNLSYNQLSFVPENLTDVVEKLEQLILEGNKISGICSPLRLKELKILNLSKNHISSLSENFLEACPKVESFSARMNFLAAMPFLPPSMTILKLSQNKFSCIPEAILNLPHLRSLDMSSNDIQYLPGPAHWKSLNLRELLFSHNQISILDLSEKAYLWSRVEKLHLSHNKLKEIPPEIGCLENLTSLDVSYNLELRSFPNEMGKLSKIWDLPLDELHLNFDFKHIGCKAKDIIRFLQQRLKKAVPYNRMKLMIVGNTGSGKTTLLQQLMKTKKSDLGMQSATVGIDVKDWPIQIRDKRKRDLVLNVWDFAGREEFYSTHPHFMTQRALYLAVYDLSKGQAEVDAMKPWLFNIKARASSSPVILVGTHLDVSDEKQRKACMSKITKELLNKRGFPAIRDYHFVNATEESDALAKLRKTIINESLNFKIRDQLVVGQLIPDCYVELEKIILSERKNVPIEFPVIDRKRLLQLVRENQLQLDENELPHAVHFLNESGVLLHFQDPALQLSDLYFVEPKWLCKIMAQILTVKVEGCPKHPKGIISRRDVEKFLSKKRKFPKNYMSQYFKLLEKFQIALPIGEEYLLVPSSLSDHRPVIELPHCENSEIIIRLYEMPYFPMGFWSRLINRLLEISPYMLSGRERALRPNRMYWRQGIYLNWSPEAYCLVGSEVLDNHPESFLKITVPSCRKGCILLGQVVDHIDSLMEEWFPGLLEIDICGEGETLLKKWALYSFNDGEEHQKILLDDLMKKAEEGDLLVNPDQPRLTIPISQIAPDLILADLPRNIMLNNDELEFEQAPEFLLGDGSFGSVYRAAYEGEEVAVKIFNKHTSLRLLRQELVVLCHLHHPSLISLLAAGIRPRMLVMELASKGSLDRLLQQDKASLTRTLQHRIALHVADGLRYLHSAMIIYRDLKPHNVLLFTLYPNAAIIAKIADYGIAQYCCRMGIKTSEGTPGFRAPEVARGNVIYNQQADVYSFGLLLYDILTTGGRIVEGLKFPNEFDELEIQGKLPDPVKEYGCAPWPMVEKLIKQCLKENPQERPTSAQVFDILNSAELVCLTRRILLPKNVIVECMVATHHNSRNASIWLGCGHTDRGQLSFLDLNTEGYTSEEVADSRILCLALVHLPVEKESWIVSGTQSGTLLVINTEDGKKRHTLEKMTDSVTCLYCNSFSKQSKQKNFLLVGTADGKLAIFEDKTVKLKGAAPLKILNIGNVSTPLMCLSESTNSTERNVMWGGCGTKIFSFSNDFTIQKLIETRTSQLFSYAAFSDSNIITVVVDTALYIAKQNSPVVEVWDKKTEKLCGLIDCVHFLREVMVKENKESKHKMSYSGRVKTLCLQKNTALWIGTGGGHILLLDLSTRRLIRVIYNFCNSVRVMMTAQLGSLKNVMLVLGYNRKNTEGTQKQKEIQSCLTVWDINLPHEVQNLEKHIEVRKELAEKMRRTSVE
In short: as §1

YSK4 = target: T24, YSK4 (Homo sapiens, UniProt Q56UN5); settings: read-out: % Cont @ 1 uM
T24 construct: purchased DiscoverX scanMAX Kinase panel
In short: as §1

KIT(D816V) = target: T25, KIT(D816V) (Homo sapiens, UniProt P10721, D816V); settings: read-out: % Cont @ 1 uM
T25 construct: purchased DiscoverX scanMAX Kinase panel
T25 sequence (P10721 26-976 D816V): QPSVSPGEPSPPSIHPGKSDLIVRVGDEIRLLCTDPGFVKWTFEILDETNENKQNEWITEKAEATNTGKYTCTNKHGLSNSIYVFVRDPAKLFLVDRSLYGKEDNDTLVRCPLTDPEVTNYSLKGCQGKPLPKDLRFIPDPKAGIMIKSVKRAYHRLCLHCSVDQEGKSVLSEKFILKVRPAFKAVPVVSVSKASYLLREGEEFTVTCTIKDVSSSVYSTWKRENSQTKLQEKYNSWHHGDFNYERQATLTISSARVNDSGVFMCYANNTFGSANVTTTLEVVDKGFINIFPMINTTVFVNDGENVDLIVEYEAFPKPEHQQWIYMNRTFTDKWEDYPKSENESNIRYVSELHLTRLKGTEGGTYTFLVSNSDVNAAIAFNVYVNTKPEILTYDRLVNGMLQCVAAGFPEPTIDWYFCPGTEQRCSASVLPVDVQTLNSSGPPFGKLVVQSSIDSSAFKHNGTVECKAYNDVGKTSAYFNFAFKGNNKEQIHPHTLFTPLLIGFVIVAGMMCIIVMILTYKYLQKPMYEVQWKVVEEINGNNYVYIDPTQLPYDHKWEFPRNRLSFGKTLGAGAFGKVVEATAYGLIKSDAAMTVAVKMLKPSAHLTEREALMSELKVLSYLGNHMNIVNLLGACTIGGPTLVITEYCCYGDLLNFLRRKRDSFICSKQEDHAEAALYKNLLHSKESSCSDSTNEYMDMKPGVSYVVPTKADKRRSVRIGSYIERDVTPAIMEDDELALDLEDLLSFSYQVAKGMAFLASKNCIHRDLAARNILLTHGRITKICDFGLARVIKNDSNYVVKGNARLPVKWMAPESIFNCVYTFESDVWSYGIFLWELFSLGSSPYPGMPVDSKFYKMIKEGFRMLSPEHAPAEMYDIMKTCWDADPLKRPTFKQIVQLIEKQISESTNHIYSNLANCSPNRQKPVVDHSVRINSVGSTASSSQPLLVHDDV
In short: as §1

EPHB1 = target: T26, EPHB1 (Homo sapiens, UniProt P54762); settings: read-out: % Cont @ 1 uM
T26 construct: purchased DiscoverX scanMAX Kinase panel
In short: as §1

KIT(D816H) = target: T27, KIT(D816H) (Homo sapiens, UniProt P10721, D816H); settings: read-out: % Cont @ 1 uM
T27 construct: purchased DiscoverX scanMAX Kinase panel
T27 sequence (P10721 26-976 D816H): as the sequence (P10721 26-976 D816V) above, with V791H counted along it
In short: as §1

MAP4K3 = target: T28, MAP4K3 (Homo sapiens, UniProt Q8IVH8)
T28 construct: purchased DiscoverX scanMAX Kinase panel
In short: as §1

PFCDPK1(P. falciparum) = target: T29, PFCDPK1(P. falciparum) (Plasmodium falciparum, UniProt P62344); settings: read-out: % Cont @ 1 uM
T29 construct: purchased DiscoverX scanMAX Kinase panel
In short: as §1

MST3 = target: T30, MST3 (Homo sapiens, UniProt Q9Y6E0)
T30 construct: purchased DiscoverX scanMAX Kinase panel
T30 sequence (Q9Y6E0 whole entry): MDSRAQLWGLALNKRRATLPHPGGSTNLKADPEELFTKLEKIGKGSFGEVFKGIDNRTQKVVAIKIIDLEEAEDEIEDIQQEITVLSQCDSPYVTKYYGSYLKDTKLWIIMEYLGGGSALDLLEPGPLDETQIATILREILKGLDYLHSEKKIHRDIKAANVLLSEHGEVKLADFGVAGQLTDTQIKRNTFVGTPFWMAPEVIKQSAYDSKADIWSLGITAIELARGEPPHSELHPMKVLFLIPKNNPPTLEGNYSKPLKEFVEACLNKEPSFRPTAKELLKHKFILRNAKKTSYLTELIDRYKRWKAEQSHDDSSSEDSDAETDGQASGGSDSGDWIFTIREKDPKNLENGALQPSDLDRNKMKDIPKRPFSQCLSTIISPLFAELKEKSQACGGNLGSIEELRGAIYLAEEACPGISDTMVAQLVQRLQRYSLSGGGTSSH
In short: as §1

ERBB4 = target: T31, ERBB4 (Homo sapiens, UniProt Q15303); settings: read-out: % Cont @ 1 uM
T31 construct: purchased DiscoverX scanMAX Kinase panel
In short: as §1

RET(M918T) = target: T32, RET(M918T) (Homo sapiens, UniProt P07949, M918T); settings: read-out: % Cont @ 1 uM
T32 construct: purchased DiscoverX scanMAX Kinase panel
In short: as §1

ERBB2 = target: T33, ERBB2 (Homo sapiens, UniProt P04626); settings: read-out: % Cont @ 1 uM
T33 construct: purchased DiscoverX scanMAX Kinase panel
In short: as §1

PFTK1 = target: T34, PFTK1 (Homo sapiens, UniProt O94921)
T34 construct: purchased DiscoverX scanMAX Kinase panel
In short: as §1

HCK = target: T35, HCK (Homo sapiens, UniProt P08631); settings: read-out: % Cont @ 1 uM
T35 construct: purchased DiscoverX scanMAX Kinase panel
In short: as §1

TRKB = target: T36, TRKB (Homo sapiens, UniProt Q16620); settings: read-out: % Cont @ 1 uM
T36 construct: purchased DiscoverX scanMAX Kinase panel
In short: as §1

AXL = target: T37, AXL (Homo sapiens, UniProt P30530); settings: read-out: % Cont @ 1 uM
T37 construct: purchased DiscoverX scanMAX Kinase panel
In short: as §1

IKK-alpha = target: T38, IKK-alpha (Homo sapiens, UniProt O15111); settings: read-out: % Cont @ 1 uM
T38 construct: purchased DiscoverX scanMAX Kinase panel
In short: as §1

TAOK1 = target: T39, TAOK1 (Homo sapiens, UniProt Q7L7X3); settings: read-out: % Cont @ 1 uM
T39 construct: purchased DiscoverX scanMAX Kinase panel
In short: as §1

MINK = target: T40, MINK (Homo sapiens, UniProt Q8N4C8); settings: read-out: % Cont @ 1 uM
T40 construct: purchased DiscoverX scanMAX Kinase panel
In short: as §1

Compound	remaining binding at 1 µM (LCK) [%]	remaining binding at 1 µM (RET) [%]	remaining binding at 1 µM (TRKA) [%]	remaining binding at 1 µM (EPHA1) [%]	remaining binding at 1 µM [1] [%]	remaining binding at 1 µM (TNIK) [%]	remaining binding at 1 µM (TAK1) [%]	percent of control binding at 1 µM (LYN) [%]	% Cont @ 1 uM (p38-alpha) [%]	remaining binding at 1 µM (SRC) [%]	remaining binding at 1 µM (MUSK) [%]	remaining binding at 1 µM (FLT3(R834Q)) [%]	remaining binding at 1 µM (YES) [%]	remaining binding at 1 µM (FGFR3(G697C)) [%]	remaining binding at 1 µM (RIOK3) [%]	remaining binding at 1 µM (BRAF) [%]	remaining binding at 1 µM (EPHB6) [%]	remaining binding at 1 µM (ZAK) [%]	remaining binding at 1 µM (SRMS) [%]	percent of control binding at 1 µM (LIMK1) [%]	also measured
Cc1cn(-c2cc(NC(=O)c3cc(C#Cc4cnc5c(Nc6cnn(C)c6)cccn45)c(C)cc3F)cc(C(C)(C)C#N)c2)cn1 [Example 1, N-(3-(2-cyanopropane-2-yl)-5-(4-methyl-1H-imidazol-1-yl)phenyl)-2-fluoro-4-methyl-5-((8-((1-methyl-1H-pyrazol-4-yl)amino)imidazo[1,2-a]pyridin-3-yl)ethynyl)benzamide]	0.15	0	0.6	4.1	15	7.2	4.3	0.5	0.65	0.1	5	0.9	2.5	7.5	31	13	0	1.5	1.2	33	remaining binding at 1 µM [2]: 0.15%; percent of control binding at 1 µM (MLK1): 18%; remaining binding at 1 µM (LRRK2): 27%; remaining binding at 1 µM (YSK4): 0.3%; percent of control binding at 1 µM (KIT(D816V)): 13%; remaining binding at 1 µM (EPHB1): 17%; percent of control binding at 1 µM (KIT(D816H)): 12%; % Cont @ 1 uM (MAP4K3): 4%; remaining binding at 1 µM (PFCDPK1(P. falciparum)): 12%; % Cont @ 1 uM (MST3): 20%; remaining binding at 1 µM (ERBB4): 18%; remaining binding at 1 µM (RET(M918T)): 0%; remaining binding at 1 µM (ERBB2): 34%; % Cont @ 1 uM (PFTK1): 8.3%; remaining binding at 1 µM (HCK): 0.2%; remaining binding at 1 µM (TRKB): 0.6%; remaining binding at 1 µM (AXL): 14.4%; remaining binding at 1 µM (IKK-alpha): 31%; remaining binding at 1 µM (TAOK1): 11%; percent of control binding at 1 µM (MINK): 2.4%
Cc1cn(-c2cc(NC(=O)c3cc(C#Cc4cnc5c(Nc6cnn(C)c6)cccn45)c(C)cc3F)cc(C(F)(F)F)c2)cn1 [Example 4, 2-fluoro-4-methyl-N-(3-(4-methyl-1H-imidazol-1-yl)-5-(trifluoromethyl)phenyl)-5-((8-((1-methyl-1H-pyrazol-4-yl)amino)imidazo[1,2-a]pyridin-3-yl)ethynyl)benzamide]	0.4	0.2	2.6	37	4.1	25	50	4.7	49	1.4	46	34	10	90	40	34	0	8.1	54	75	remaining binding at 1 µM [2]: 5.9%; percent of control binding at 1 µM (MLK1): 76%; remaining binding at 1 µM (LRRK2): 92%; remaining binding at 1 µM (YSK4): 3%; percent of control binding at 1 µM (KIT(D816V)): 61%; remaining binding at 1 µM (EPHB1): 26%; percent of control binding at 1 µM (KIT(D816H)): 53%; % Cont @ 1 uM (MAP4K3): 70%; remaining binding at 1 µM (PFCDPK1(P. falciparum)): 48%; % Cont @ 1 uM (MST3): 70%; remaining binding at 1 µM (ERBB4): 46%; remaining binding at 1 µM (RET(M918T)): 0.95%; remaining binding at 1 µM (ERBB2): 65%; % Cont @ 1 uM (PFTK1): 94%; remaining binding at 1 µM (HCK): 0.65%; remaining binding at 1 µM (TRKB): 7.7%; remaining binding at 1 µM (AXL): 1.4%; remaining binding at 1 µM (IKK-alpha): 35%; remaining binding at 1 µM (TAOK1): 96%; percent of control binding at 1 µM (MINK): 88%
